# Assay results published in ChEMBL document CHEMBL3885881, “DrugMatrix”.
# Species on record: Rattus norvegicus
# Assay: DrugMatrix - Regimen: Daily Repeat
# Type: toxicity, organism-based, Sprague-Dawley
# Set-up: regimen Daily Repeat, gender Male, age 6-8 weeks
# Details: in vivo, iv, vehicle 100 % SALINE; for ABSOLUTE BASOPHIL / ABSOLUTE EOSINOPHIL / ABSOLUTE LYMPHOCYTE / ABSOLUTE MONOCYTE / ABSOLUTE SEGMENTED NEUTROPHIL / BASOPHIL / EOSINOPHIL / ERYTHROCYTE COUNT / HEMATOCRIT / HEMOGLOBIN / LEUKOCYTE COUNT / LYMPHOCYTE / MEAN CORPUSCULAR HEMOGLOBIN / MEAN CORPUSCULAR HEMOGLOBIN CONCENTRATION / MEAN CORPUSCULAR VOLUME / MONOCYTE / NEUTROPHIL / NUCLEATED RED BLOOD CELLS: tissue Blood; for ALANINE AMINOTRANSFERASE / ALKALINE PHOSPHATASE / ASPARTATE AMINOTRANSFERASE / BLOOD UREA NITROGEN / CARBON DIOXIDE / CHOLESTEROL / CREATINE PHOSPHOKINASE / CREATININE / GLUCOSE / LACTATE DEHYDROGENASE / LIPASE / SODIUM / TOTAL BILIRUBIN / TOTAL PROTEIN / URIC ACID: tissue Plasma
# [1] = 0 mg/kg, 72 h, dose level Control, time 3 day
# [2] = 0 mg/kg, 120 h, dose level Control, time 5 day
# [3] = […], 72 h, dose 0.27 mg/Kg, dose level Low, time 3 day
# [4] = […], 72 h, dose 2.7 mg/Kg, dose level High, time 3 day
smiles,measurement,setting,value
COc1cccc2c1C(=O)c1c(O)c3c(c(O)c1C2=O)C[C@@](O)(C(=O)CO)C[C@@H]3O[C@H]1C[C@H](N)[C@@H](O)[C@H](C)O1 [EPIRUBICIN],ABSOLUTE BASOPHIL,[1],0 CELLS/uL
same,ABSOLUTE EOSINOPHIL,[1],23.17 CELLS/uL
same,ABSOLUTE LYMPHOCYTE,[1],12448.83 CELLS/uL
same,ABSOLUTE MONOCYTE,[1],259.5 CELLS/uL
same,ABSOLUTE SEGMENTED NEUTROPHIL,[1],1635.17 CELLS/uL
same,BASOPHIL,[1],0%
same,EOSINOPHIL,[1],0.17%
same,ERYTHROCYTE COUNT,[1],5.35 x10E6/uL
same,HEMATOCRIT,[1],34.85%
same,HEMOGLOBIN,[1],13.72 G/DL
same,LEUKOCYTE COUNT,[1],14.37 x10E3/uL
same,LYMPHOCYTE,[1],86.5%
same,MEAN CORPUSCULAR HEMOGLOBIN,[1],25.67 pg
same,MEAN CORPUSCULAR HEMOGLOBIN CONCENTRATION,[1],39.38 G/DL
same,MEAN CORPUSCULAR VOLUME,[1],65.2 fL
same,MONOCYTE,[1],1.83%
same,NEUTROPHIL,[1],11.5%
same,NUCLEATED RED BLOOD CELLS,[1],0 /100WBC
same,ALANINE AMINOTRANSFERASE,[1],56.5 u/L
same,ALKALINE PHOSPHATASE,[1],334 u/L
same,ASPARTATE AMINOTRANSFERASE,[1],85.5 u/L
same,BLOOD UREA NITROGEN,[1],16.33 mg/dL
same,CARBON DIOXIDE,[1],26.5 mmol/L
same,CHOLESTEROL,[1],70.33 mg/dL
same,CREATINE PHOSPHOKINASE,[1],339.5 u/L
same,CREATININE,[1],0.18 mg/dL
same,GLUCOSE,[1],155.17 mg/dL
same,LACTATE DEHYDROGENASE,[1],382 u/L
same,LIPASE,[1],9.5 u/L
same,SODIUM,[1],143.87 MEQ/L
same,TOTAL BILIRUBIN,[1],0.2 mg/dL
same,TOTAL PROTEIN,[1],5.98 G/DL
same,URIC ACID,[1],1.53 mg/dL
same,ABSOLUTE BASOPHIL,[2],0 CELLS/uL
same,ABSOLUTE EOSINOPHIL,[2],16.17 CELLS/uL
same,ABSOLUTE LYMPHOCYTE,[2],10653.67 CELLS/uL
same,ABSOLUTE MONOCYTE,[2],17.17 CELLS/uL
same,ABSOLUTE SEGMENTED NEUTROPHIL,[2],746.33 CELLS/uL
same,BASOPHIL,[2],0%
same,EOSINOPHIL,[2],0.17%
same,ERYTHROCYTE COUNT,[2],5.88 x10E6/uL
same,HEMATOCRIT,[2],36.68%
same,HEMOGLOBIN,[2],14.6 G/DL
same,LEUKOCYTE COUNT,[2],11.43 x10E3/uL
same,LYMPHOCYTE,[2],91.83%
same,MEAN CORPUSCULAR HEMOGLOBIN,[2],24.85 pg
same,MEAN CORPUSCULAR HEMOGLOBIN CONCENTRATION,[2],39.8 G/DL
same,MEAN CORPUSCULAR VOLUME,[2],62.47 fL
same,MONOCYTE,[2],0.17%
same,NEUTROPHIL,[2],7.83%
same,NUCLEATED RED BLOOD CELLS,[2],0 /100WBC
same,ALANINE AMINOTRANSFERASE,[2],45.5 u/L
same,ALKALINE PHOSPHATASE,[2],330.17 u/L
same,ASPARTATE AMINOTRANSFERASE,[2],93.33 u/L
same,BLOOD UREA NITROGEN,[2],18 mg/dL
same,CARBON DIOXIDE,[2],25.5 mmol/L
same,CHOLESTEROL,[2],73.5 mg/dL
same,CREATINE PHOSPHOKINASE,[2],434 u/L
same,CREATININE,[2],0.2 mg/dL
same,GLUCOSE,[2],148.83 mg/dL
same,LACTATE DEHYDROGENASE,[2],603.83 u/L
same,LIPASE,[2],10 u/L
same,SODIUM,[2],139.78 MEQ/L
same,TOTAL BILIRUBIN,[2],0.15 mg/dL
same,TOTAL PROTEIN,[2],6.1 G/DL
same,URIC ACID,[2],2.02 mg/dL
same,ABSOLUTE BASOPHIL,[3],0 CELLS/uL
same,ABSOLUTE EOSINOPHIL,[3],28 CELLS/uL
same,ABSOLUTE LYMPHOCYTE,[3],4991.67 CELLS/uL
same,ABSOLUTE MONOCYTE,[3],38 CELLS/uL
same,ABSOLUTE SEGMENTED NEUTROPHIL,[3],375.67 CELLS/uL
same,BASOPHIL,[3],0%
same,EOSINOPHIL,[3],0.67%
same,ERYTHROCYTE COUNT,[3],4.95 x10E6/uL
same,HEMATOCRIT,[3],31.43%
same,HEMOGLOBIN,[3],12.5 G/DL
same,LEUKOCYTE COUNT,[3],5.43 x10E3/uL
same,LYMPHOCYTE,[3],91.67%
same,MEAN CORPUSCULAR HEMOGLOBIN,[3],25.3 pg
same,MEAN CORPUSCULAR HEMOGLOBIN CONCENTRATION,[3],39.8 G/DL
same,MEAN CORPUSCULAR VOLUME,[3],63.57 fL
same,MONOCYTE,[3],0.67%
same,NEUTROPHIL,[3],7%
same,NUCLEATED RED BLOOD CELLS,[3],0 /100WBC
same,ABSOLUTE BASOPHIL,[4],0 CELLS/uL
same,ABSOLUTE EOSINOPHIL,[4],0 CELLS/uL
same,ABSOLUTE LYMPHOCYTE,[4],4049.67 CELLS/uL
same,ABSOLUTE MONOCYTE,[4],29.33 CELLS/uL
same,ABSOLUTE SEGMENTED NEUTROPHIL,[4],387.67 CELLS/uL
same,BASOPHIL,[4],0%
same,EOSINOPHIL,[4],0%
same,ERYTHROCYTE COUNT,[4],5.35 x10E6/uL
same,HEMATOCRIT,[4],33.77%
same,HEMOGLOBIN,[4],13.47 G/DL
same,LEUKOCYTE COUNT,[4],4.47 x10E3/uL
same,LYMPHOCYTE,[4],90.67%
same,MEAN CORPUSCULAR HEMOGLOBIN,[4],25.2 pg
same,MEAN CORPUSCULAR HEMOGLOBIN CONCENTRATION,[4],39.87 G/DL
same,MEAN CORPUSCULAR VOLUME,[4],63.03 fL
